Source: patent US20240360165A1, “INHIBITORS OF CYCLIN DEPENDENT KINASE 7 (CDK7)” (Syros Pharmaceuticals, Inc., priority 2016, published 2024)
pIC50: −log10 of the molar value. Like-named read-outs stand apart in the source and are kept apart here.

Key:
CDK2/Cyclin E1 complex = CDK2/Cyclin E1 complex (Homo sapiens, UniProt P24941); assay: CDK2 inhibition assay (Caliper/LabChip EZ Reader kinase assay); format: biochemical; conditions: Table 1, CDK2/Cyclin E1 0.5 nM, ATP 2 mM, 35 min at 27° C.
Outline: (§1)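 Activity read as fluorescent peptide conversion on a LabChip EZ Reader. For CDK2/Cyclin E1 (0.5 nM), substrate was 5-FAM-CDK7tide (2 μM) with 2 mM MgCl2; for CDK9/Cyclin T1 (8 nM), 5-FAM-CDK9tide (2 μM) with 10 mM MgCl2.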

HCC70 cells = assay: Inhibition of proliferation of HCC70 cells (CyQUANT Direct Cell Proliferation Assay, 72 hour); format: cell-based, human; conditions: read-out: Inhibition of Proliferation of HCC70 Cells (calculated IC50)
Protocol: HCC70 cells are a cell line derived from human triple negative breast cancer. […] Known CDK inhibitors dinaciclib or N-((1S,3R)-3-((5-chloro-4-(1H-indol-3-yl) pyrimidin-2-yl)amino)cyclohexyl)-5-((E)-4-(dimethylamino)but-2-enamido)picolinamide and triptolide were used as positive controls. […] The cells were cultured at 37° C. in a humidified chamber in the presence of 5% CO2. Proliferation assays were conducted over a 72 hour time period. CyQUANT® Direct Cell Proliferation Assay (Life Technologies, Chicago, IL USA) was used to assess the anti-proliferative effects of the compounds following manufacturer's directions and utilizing the reagents supplied with the CyQUANT® Direct Cell kit.

[1] = molecular target: CDK7/Cyclin H/MAT1 complex (Homo sapiens, UniProt P50613); assay: CDK7 inhibition assay (Caliper/LabChip EZ Reader kinase assay); format: biochemical; conditions: Table 1, CDK7/Cyclin H/MAT1 6 nM, ATP 2 mM, 35 min at 27° C.
Sequence of CDK7/Cyclin H/MAT1 complex (P50613 whole entry, species assumed): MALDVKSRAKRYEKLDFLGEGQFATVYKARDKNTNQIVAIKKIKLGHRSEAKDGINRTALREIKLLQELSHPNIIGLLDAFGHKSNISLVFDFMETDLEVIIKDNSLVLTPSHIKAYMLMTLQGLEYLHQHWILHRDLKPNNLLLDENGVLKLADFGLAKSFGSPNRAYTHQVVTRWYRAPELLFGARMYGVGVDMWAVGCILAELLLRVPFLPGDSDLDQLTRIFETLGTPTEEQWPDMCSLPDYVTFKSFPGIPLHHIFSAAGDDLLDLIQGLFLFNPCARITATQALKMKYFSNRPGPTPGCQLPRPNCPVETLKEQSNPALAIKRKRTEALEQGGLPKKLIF
Sequence of CDK7/Cyclin H/MAT1 complex (P51946 whole entry partner, species assumed): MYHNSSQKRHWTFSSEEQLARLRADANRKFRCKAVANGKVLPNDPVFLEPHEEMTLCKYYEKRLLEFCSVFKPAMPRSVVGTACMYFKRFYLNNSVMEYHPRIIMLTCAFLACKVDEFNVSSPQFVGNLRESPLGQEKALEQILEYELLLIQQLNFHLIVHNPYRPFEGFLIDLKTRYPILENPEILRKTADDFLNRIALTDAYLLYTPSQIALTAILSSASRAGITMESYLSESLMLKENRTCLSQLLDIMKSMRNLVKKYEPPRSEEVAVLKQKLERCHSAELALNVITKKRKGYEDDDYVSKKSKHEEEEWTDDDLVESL
Sequence of CDK7/Cyclin H/MAT1 complex (P51948 whole entry partner, species assumed): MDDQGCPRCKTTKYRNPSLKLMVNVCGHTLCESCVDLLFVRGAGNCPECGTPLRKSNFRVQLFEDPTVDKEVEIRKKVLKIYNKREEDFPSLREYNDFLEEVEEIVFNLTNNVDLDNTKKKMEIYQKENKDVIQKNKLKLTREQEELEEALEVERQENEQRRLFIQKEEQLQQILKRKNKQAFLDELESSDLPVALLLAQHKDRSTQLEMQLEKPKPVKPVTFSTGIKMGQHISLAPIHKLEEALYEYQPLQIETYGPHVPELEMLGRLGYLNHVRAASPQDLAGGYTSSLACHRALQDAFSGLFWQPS
Outline: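 A Perkin Elmer Caliper/LabChip EZ Reader (Waltham, MA) platform served as the basis for this CDK7 kinase inhibition assay. The work was carried out by Biortus Biosciences, located in Jiangyin, Jiangsu Province, P.R. of China. Each CDK studied had its own kinase assay, and compounds were evaluated for their ability to block CDK7 activity.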

CDK9/Cyclin T1 complex = CDK9/Cyclin T1 complex (Homo sapiens, UniProt P50750); assay: CDK9 inhibition assay (Caliper/LabChip EZ Reader kinase assay); format: biochemical; conditions: Table 1, CDK9/Cyclin T1 8 nM, ATP 2 mM, 15 min at 27° C.
Sequence of CDK9/Cyclin T1 complex (P50750 whole entry, species assumed): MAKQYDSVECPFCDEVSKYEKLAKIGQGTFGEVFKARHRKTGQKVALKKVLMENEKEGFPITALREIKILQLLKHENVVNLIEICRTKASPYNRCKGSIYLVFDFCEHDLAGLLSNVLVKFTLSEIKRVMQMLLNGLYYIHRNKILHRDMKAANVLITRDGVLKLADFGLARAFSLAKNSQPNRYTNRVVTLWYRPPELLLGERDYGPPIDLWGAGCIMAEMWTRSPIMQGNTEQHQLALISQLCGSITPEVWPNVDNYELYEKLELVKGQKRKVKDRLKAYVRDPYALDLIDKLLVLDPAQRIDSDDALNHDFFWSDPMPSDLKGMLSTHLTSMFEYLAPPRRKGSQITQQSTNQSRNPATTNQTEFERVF
Sequence of CDK9/Cyclin T1 complex (O60563 whole entry partner, species assumed): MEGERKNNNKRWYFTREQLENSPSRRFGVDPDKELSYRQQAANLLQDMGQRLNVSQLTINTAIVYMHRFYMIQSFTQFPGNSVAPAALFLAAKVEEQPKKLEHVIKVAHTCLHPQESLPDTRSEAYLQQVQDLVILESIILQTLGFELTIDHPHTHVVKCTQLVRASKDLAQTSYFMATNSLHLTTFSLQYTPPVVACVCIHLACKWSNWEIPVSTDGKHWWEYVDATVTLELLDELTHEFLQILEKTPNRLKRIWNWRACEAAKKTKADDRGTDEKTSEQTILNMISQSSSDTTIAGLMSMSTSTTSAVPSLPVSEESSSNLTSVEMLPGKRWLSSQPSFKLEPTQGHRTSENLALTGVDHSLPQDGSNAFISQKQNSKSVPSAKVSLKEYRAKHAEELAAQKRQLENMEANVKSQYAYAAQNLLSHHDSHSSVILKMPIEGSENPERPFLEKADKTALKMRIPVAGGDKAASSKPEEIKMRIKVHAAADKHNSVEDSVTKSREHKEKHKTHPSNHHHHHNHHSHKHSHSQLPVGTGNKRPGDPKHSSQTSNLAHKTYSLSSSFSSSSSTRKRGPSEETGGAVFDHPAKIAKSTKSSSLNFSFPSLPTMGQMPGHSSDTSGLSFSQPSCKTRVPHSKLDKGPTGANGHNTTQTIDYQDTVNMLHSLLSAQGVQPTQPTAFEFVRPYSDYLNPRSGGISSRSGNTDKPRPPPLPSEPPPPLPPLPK
Outline: as §1

[2] = molecular target: T1, CDK12 (aa686-1082)/Cyclin K complex (Homo sapiens, UniProt Q9NYV4); assay: CDK12 inhibition assay (Caliper/LabChip EZ Reader kinase assay); format: biochemical; conditions: Table 1, CDK12 (aa686-1082)/Cyclin K 50 nM, ATP 2 mM, 3 hr at 27° C.
T1 construct: CDK12 (aa686-1082)/Cyclin K complex
T1 sequence (Q9NYV4 686-1082, species assumed): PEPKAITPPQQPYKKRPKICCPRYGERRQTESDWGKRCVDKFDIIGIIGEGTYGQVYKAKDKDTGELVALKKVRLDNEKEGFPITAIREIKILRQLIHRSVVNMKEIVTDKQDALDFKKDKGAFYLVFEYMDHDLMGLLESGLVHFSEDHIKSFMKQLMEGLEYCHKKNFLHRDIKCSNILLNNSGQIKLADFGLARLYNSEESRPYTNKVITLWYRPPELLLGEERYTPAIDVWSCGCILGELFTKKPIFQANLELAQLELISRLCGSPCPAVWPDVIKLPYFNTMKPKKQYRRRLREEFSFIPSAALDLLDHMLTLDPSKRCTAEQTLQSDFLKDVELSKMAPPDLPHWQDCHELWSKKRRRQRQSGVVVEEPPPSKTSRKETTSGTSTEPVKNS
T1 sequence (O75909 whole entry partner, species assumed, the tested form may be a part): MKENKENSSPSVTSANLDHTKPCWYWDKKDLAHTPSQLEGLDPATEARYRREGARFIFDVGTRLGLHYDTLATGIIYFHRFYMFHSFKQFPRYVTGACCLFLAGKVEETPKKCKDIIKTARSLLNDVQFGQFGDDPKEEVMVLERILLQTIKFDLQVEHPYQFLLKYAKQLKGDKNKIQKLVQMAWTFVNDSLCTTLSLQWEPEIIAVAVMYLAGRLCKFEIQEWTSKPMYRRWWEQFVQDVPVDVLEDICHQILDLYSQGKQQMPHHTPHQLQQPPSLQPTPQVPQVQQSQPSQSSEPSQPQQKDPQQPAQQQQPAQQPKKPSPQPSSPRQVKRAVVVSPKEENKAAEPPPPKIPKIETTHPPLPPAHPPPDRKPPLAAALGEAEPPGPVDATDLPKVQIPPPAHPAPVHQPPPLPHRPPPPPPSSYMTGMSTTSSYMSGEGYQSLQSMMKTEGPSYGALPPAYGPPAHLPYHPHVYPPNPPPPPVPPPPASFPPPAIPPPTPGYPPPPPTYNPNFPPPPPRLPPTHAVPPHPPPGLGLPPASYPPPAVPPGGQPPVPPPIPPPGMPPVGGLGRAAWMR

SMILES | pIC50 (CDK2/Cyclin E1 complex) | pIC50 [1] | pIC50 (CDK9/Cyclin T1 complex) | pIC50 [2] | pIC50 (CDK2/Cyclin E1 complex; listed as 128) | pIC50 ([1]; listed as 128) | pIC50 (CDK9/Cyclin T1 complex; listed as 128) | pIC50 ([2]; listed as 128) | pIC50 (HCC70 cells; Homo sapiens, HCC70, 72 h) | pIC50 (HCC70 cells)
CN1CCC[C@H](Nc2ncc(C(F)(F)F)c(-c3c[nH]c4cc(S(C)(=O)=O)ccc34)n2)C1 [Compound 364, N-[(3S)-1-methyl-3-piperidyl]-4-(6-methylsulfonyl-1H-indol-3-yl)-5-(trifluoromethyl)pyrimidin-2-amine] | < 5.30 | 6.70 to 7.70 | < 5.30 | < 5.30 |  |  |  |  | 5.30 to 6.00 | 
CCc1cnc(N[C@H]2CCCNC2)nc1-c1c[nH]c2c(S(C)(=O)=O)cccc12 [Compound 269, (S)-5-ethyl-4-(7-(methylsulfonyl)-1H-indol-3-yl)-N-(piperidin-3-yl)pyrimidin-2-amine] | 5.30 to 6.70 | > 7.70 | 5.30 to 6.70 | 5.30 to 6.70 |  |  |  |  | 6.00 to 7.00 | 
CN(C)S(=O)(=O)c1cccc2c(-c3nc(NC4CCCNC4)ncc3C(F)(F)F)c[nH]c12 (centres unmarked) [Compound 371] | 5.30 to 6.70 | > 7.70 | 5.30 to 6.70 | 5.30 to 6.70 |  |  |  |  | > 7.00 | 
Cc1noc([C@H]2CC[C@H](Nc3ncc(C(F)(F)F)c(-c4c[nH]c5cc(C#N)ccc45)n3)CN2)n1 [Compound 358] | < 5.30 | 6.70 to 7.70 | < 5.30 | < 5.30 |  |  |  |  | 6.00 to 7.00 | 
CNC(=O)c1cccc2c(-c3nc(N[C@H]4CCCNC4)ncc3C(F)(F)F)cn(COC)c12 [Compound 304] | < 5.30 | < 5.30 | < 5.30 | < 5.30 |  |  |  |  |  | 5.30 to 6.00
CCc1cnc(N[C@H]2CCCNC2)nc1-c1c[nH]c2c(F)c(C#N)ccc12 [Compound 360, 3-[5-ethyl-2-[[(3S)-3-piperidyl]amino]pyrimidin-4-yl]-7-fluoro-1H-indole-6-carbonitrile] | < 5.30 | 6.70 to 7.70 | < 5.30 | < 5.30 |  |  |  |  | 5.30 to 6.00 | 
CP(C)(=O)c1cccc2c(-c3nc(N[C@H]4CCCNC4)ncc3C(F)(F)F)c[nH]c12 [Compound 352, (S)-dimethyl(3-(2-(piperidin-3-ylamino)-5-(trifluoromethyl)pyrimidin-4-yl)-1H-indol-7-yl)phosphine oxide] | < 5.30 | < 5.30 | < 5.30 | < 5.30 |  |  |  |  | 5.30 to 6.00 | 
N#Cc1ccc2c(-c3nc(N[C@H]4CCCNC4)ncc3SC(F)F)c[nH]c2c1 [Compound 361, 3-[5-(difluoromethylsulfanyl)-2-[[(3S)-3-piperidyl]amino]pyrimidin-4-yl]-1H-indole-6-carbonitrile] | < 5.30 | 6.70 to 7.70 | 5.30 to 6.70 | 5.30 to 6.70 |  |  |  |  | 6.00 to 7.00 | 
N#Cc1ccc2c(-c3nc(N[C@H]4CCCNC4)ncc3OC(F)F)c[nH]c2c1 [Compound 301, 3-[5-(difluoromethoxy)-2-[[(3S)-3-piperidyl]amino]pyrimidin-4-yl]-1H-indole-6-carbonitrile] | < 5.30 | 6.70 to 7.70 | < 5.30 | < 5.30 |  |  |  |  | 5.30 to 6.00 | 
CC1CCNCC1Nc1ncc(C(F)(F)F)c(-c2c[nH]c3ccccc23)n1 (single isomer, unassigned) [Compound 373] | < 5.30 | 6.70 to 7.70 | < 5.30 | < 5.30 |  |  |  |  |  | 5.30 to 6.00
CC1(C)CNC[C@@H](Nc2ncc(Cl)c(-c3c[nH]c4c(S(C)(=O)=O)c(C#N)ccc34)n2)C1 [Compound 382, 3-[5-chloro-2-[[(3S)-5,5-dimethyl-3-piperidyl]amino]pyrimidin-4-yl]-7-methylsulfonyl-1H-indole-6-carbonitrile] | 5.30 to 6.70 | > 7.70 | 5.30 to 6.70 | 5.30 to 6.70 |  |  |  |  | > 7.00 | 
CNC(=O)c1ccc2c(-c3nc(N[C@H]4CCCNC4)ncc3C(F)(F)F)c[nH]c2n1 [Compound 297] | 5.30 to 6.70 | > 7.70 | 5.30 to 6.70 | 5.30 to 6.70 |  |  |  |  | > 7.00 | 
N#Cc1ccc2c(-c3nc(N[C@@H]4CNC[C@@H](F)C4)ncc3C(F)(F)F)c[nH]c2c1 [Compound 368, 3-[2-[[(3S,5S)-5-fluoro-3-piperidyl]amino]-5-(trifluoromethyl)pyrimidin-4-yl]-1H-Indole-6-carbonitrile] | < 5.30 | 6.70 to 7.70 | < 5.30 | 5.30 to 6.70 | < 5.30 | < 5.30 | < 5.30 | < 5.30 | 5.30 to 6.00 | 
N#Cc1ccc2c(-c3nc(N[C@H]4CCC5(CCC5)NC4)ncc3C(F)(F)F)c[nH]c2c1 (single isomer, unassigned) [Compound 378] | < 5.30 | 6.70 to 7.70 | < 5.30 | < 5.30 |  |  |  |  | 5.30 to 6.00 | 

Now from value to compound, other results behind:

pIC50 (CDK2/Cyclin E1 complex) | pIC50 [1] | pIC50 (CDK9/Cyclin T1 complex) | pIC50 [2] | pIC50 (CDK2/Cyclin E1 complex; listed as 128) | pIC50 ([1]; listed as 128) | pIC50 (CDK9/Cyclin T1 complex; listed as 128) | pIC50 ([2]; listed as 128) | SMILES | pIC50 (HCC70 cells; Homo sapiens, HCC70, 72 h) | pIC50 (HCC70 cells)
5.30 to 6.70 | 6.70 to 7.70 | 5.30 to 6.70 | 5.30 to 6.70 |  |  |  |  | O=C1CCN(C(=O)c2ccc3c(-c4nc(N[C@H]5CCCNC5)ncc4C(F)(F)F)c[nH]c3c2)C1 [Compound 302, 1-[3-[2-[[(3S)-3-piperidyl]amino]-5-(trifluoromethyl)pyrimidin-4-yl]-1H-indole-6-carbonyl] pyrrolidin-3-one] | 6.00 to 7.00 | 
5.30 to 6.70 | > 7.70 | 5.30 to 6.70 | 5.30 to 6.70 |  |  |  |  | COC1CCN(C(=O)c2ccc3c(-c4nc(N[C@H]5CCCNC5)ncc4C(F)(F)F)c[nH]c3c2)C1 (single isomer, unassigned) [Compound 281] | 6.00 to 7.00 | 
< 5.30 | 6.70 to 7.70 | < 5.30 | 5.30 to 6.70 |  |  |  |  | CP(C)(=O)c1ccc2c(-c3nc(N[C@H]4CCCNC4)ncc3C(F)(F)F)c[nH]c2c1 [Compound 354] | 5.30 to 6.00 | 
< 5.30 | 6.70 to 7.70 | < 5.30 | 5.30 to 6.70 |  |  |  |  | CO[C@H]1CCN(C(=O)c2ccc3c(-c4nc(N[C@H]5CCCNC5)ncc4C(F)(F)F)c[nH]c3c2)C1 [Compound 280] |  | 6.00 to 7.00
< 5.30 | 6.70 to 7.70 | < 5.30 | 5.30 to 6.70 |  |  |  |  | FC(F)(F)c1cnc(N[C@H]2CCCNC2)nc1-c1c[nH]c2cc(-c3ccc4c(c3)OCCO4)ccc12 [Compound 342] |  | 5.30 to 6.00
5.30 to 6.70 | > 7.70 | 5.30 to 6.70 | 5.30 to 6.70 |  |  |  |  | OCc1cncc(-c2ccc3c(-c4nc(N[C@H]5CCCNC5)ncc4C(F)(F)F)c[nH]c3c2)c1 [Compound 318] |  | 6.00 to 7.00
5.30 to 6.70 | > 7.70 | 5.30 to 6.70 | 5.30 to 6.70 |  |  |  |  | NC(=O)c1cccc(-c2ccc3c(-c4nc(N[C@H]5CCCNC5)ncc4C(F)(F)F)c[nH]c3c2)c1 [Compound 314] |  | 6.00 to 7.00
5.30 to 6.70 | 6.70 to 7.70 | 5.30 to 6.70 | 5.30 to 6.70 |  |  |  |  | O=C1CCc2ccc(-c3ccc4c(-c5nc(N[C@H]6CCCNC6)ncc5C(F)(F)F)c[nH]c4c3)cc2N1 [Compound 334] |  | 6.00 to 7.00
5.30 to 6.70 | > 7.70 | 5.30 to 6.70 | 5.30 to 6.70 |  |  |  |  | [O-][S+](c1ccc2c(-c3nc(N[C@H]4CCCNC4)ncc3C(F)(F)F)c[nH]c2c1)C(F)F (stereo partly drawn) [Compound 380, 4-[6-(difluoromethylsulfinyl)-1H-indol-3-yl]-N-[(3S)-3-piperidyl]-5-(trifluoromethyl) pyrimidin-2-amine] | > 7.00 | 
5.30 to 6.70 | > 7.70 | 5.30 to 6.70 | 5.30 to 6.70 |  |  |  |  | Cc1c(-c2ccc3c(-c4nc(N[C@H]5CCCNC5)ncc4C(F)(F)F)c[nH]c3c2)c[nH]c(=O)c1C#N [Compound 311, 4-methyl-2-oxo-5-[3-[2-[[(3S)-3-piperidyl]amino]-5-(trifluoromethyl)pyrimidin-4-yl]-1H-indol-6-yl]-1H-pyridine-3-carbonitrile] | 5.30 to 6.00 | 
< 5.30 | 6.70 to 7.70 | < 5.30 | 5.30 to 6.70 |  |  |  |  | FC(F)(F)c1cnc(N[C@H]2CCCNC2)nc1-c1c[nH]c2cc(-c3ccnc4ccccc34)ccc12 [Compound 339] |  | 5.30 to 6.00
< 5.30 | 6.70 to 7.70 | < 5.30 | 5.30 to 6.70 |  |  |  |  | CC[C@]1(O)CCN(C(=O)c2ccc3c(-c4nc(N[C@H]5CCCNC5)ncc4C(F)(F)F)c[nH]c3c2)C1 (single isomer, unassigned) [Compound 347] | 6.00 to 7.00 | 
